Results as given in patent publication US20110184018A1, “METHOD FOR TREATING PERIPHERAL NEUROPATHIC PAIN” (LOHOCLA RESEARCH CORPORATION, priority 2005, published 2011).

Tests used:
[1] = test system: rats following spinal nerve ligation (SNL); assay: Thermal and tactile hyperalgesia after spinal nerve ligation (SNL); type: in vivo, rat
Method: FIG. 7 illustrates the scheme for testing the DCUK ethyl ester in neuropathic pain models. In FIG. 7 graphs showing attenuation of tactile (Panel A) and thermal (Panel B) hyperalgesia in animals following spinal nerve ligation (SNL) are provided. DCUK-OEt (30 or 100 mg/kg) was administered at the time indicated by the arrow. Hyperalgesic responses were followed for the next 180 minutes. The shaded area represents the area of hyperalgesia produced by SNL. BL on the X-axis represents the baseline response of animals prior to spinal nerve ligation. SNL represents the response of the animals after spinal nerve ligation and prior to receiving the DCUKA ethyl ester.
Spinal Nerve Ligation and Sham Surgery. Anesthesia was maintained with 0.5% halothane in oxygen. After surgical preparation of the rats, a 2-cm paraspinal incision was made at the level L4-S2. The unilateral L5 and L6 spinal nerves were exposed and tightly ligated distal to the dorsal root ganglia by using 4-0 silk suture. The incisions were closed, and animals were allowed to recover. Sham-operated control rats were prepared in an identical manner without L5/L6 nerve ligation. […] Separate groups of animals were used in tests for thermal and tactile hypersensitivity.
Tactile Hypersensitivity Test and Evaluation. Animals were placed in a suspended plastic chamber with a wire mesh platform and allowed to habituate for 15 minutes. Tactile hypersensitivity was determined by measuring paw withdrawal threshold in response to probing the plantar surface of the left hind paw with a series of 8 calibrated von Frey filaments (0.40, 0.70, 1.20, 2.00, 3.63, 5.50, 8.50, and 15.1 g). Measurements were taken before surgery and before and after administration of drug or vehicle. Withdrawal threshold was determined by sequentially increasing and decreasing stimulus intensity (“up and down” method), analyzed by using a Dixon nonparametric test, and expressed as the paw withdrawal threshold in gram force values. All studies were carried out 7 days after spinal nerve ligation (SNL).
Thermal Hypersensitivity Test (Radiant Heat Paw Withdrawal Test). Rats were placed in clear plastic chambers on a glass surface and were habituated for 15 minutes before testing. Thermal sensitivity was measured by using paw withdrawal latency to a radiant heat stimulus. A radiant heat source (i.e., infrared) was activated with a timer and focused onto the plantar surface of the left hind paw of a rat, and the latency to paw withdrawal was measured. A motion detector that halted both lamp and timer when the paw was withdrawn determined paw withdrawal latency. The latencies were measured before surgery and before and after drug or vehicle administration. A maximum cutoff of 33 seconds was used to prevent tissue damage. […]

[2] = test system: primary cultures of rat cerebellar granule cells; assay: Glutamate-induced excitotoxic cell death; type: cell-based; settings: 100 micromolar glutamate
Method: Glutamate Excitotoxicity. Primary cultures of cerebellar granule cells were prepared from 7-day-old Sprague-Dawley rats. The cultures were maintained in plates containing 24 wells (volume of 1 mL/well). Culture density was about 1.5×10^6 cells/mL. Cell viability was assayed after 7 or 8 days in culture by the production of fluorescein, formed from fluorescein diacetate by esterases present in living cells. Cells were washed with magnesium ion-free Locke's buffer, and then exposed to 100 μM glutamate alone, glutamate and 10 μM glycine, or each of these conditions in the presence of 100 μM DCUKA or 100 μM DCUK-OMe at 25° C. for 30 minutes. DCUKA and DCUK-OMe were added in 2-μl aliquots to yield a final DMSO concentration of 0.2%. […] Fluorescence of each well was measured on a Perkin-Elmer HTS7000 plate reader (excitation 485 nm; emission 535 nm; 16 measurements per well) with optimal gain settings. For each 24-well plate, the fluorescence of one control culture well (i.e., not exposed to glutamate) was automatically set to the highest fluorescence value, and fluorescence values were determined in all other wells with the same gain settings. Fluorescence measurements in all 24 wells were normalized to the control culture and expressed as a percentage of this value. Data are expressed as percentage of cell death (100-percentage of control). […]

CCOC(=O)c1cc(NC(=O)N(c2ccccc2)c2ccccc2)c2c(Cl)cc(Cl)cc2n1 [DCUK-OEt, N,N-diphenyl-4-ureido-5,7-dichloro-2-carboxy quinoline ethyl ester]
normalization of thermal versus tactile hyperalgesia ([1]; 30 or 100 mg/kg): thermal hyperalgesia is normalized by administration of DCUKA ethyl ester to a greater extent than tactile hyperalgesia | inhibition of thermal hyperalgesia ([1]; i.p., 100 mg/kg): 75% | reduction of thermal hyperalgesia ([1]; oral, 200 mg/kg emulsion): about 70% | inhibition of thermal hyperalgesia ([1]; p.o., about 150 mg/kg): 45%

O=C(O)c1cc(NC(=O)N(c2ccccc2)c2ccccc2)c2c(Cl)cc(Cl)cc2n1 [DCUKA, N,N-diphenyl-4-ureido-5,7-dichloro-2-carboxyquinoline]
protection from glutamate-induced damage ([2]; 100 μM compound): completely protected | reduction of cell death ([2]; 10 micromolar compound): more than 50%
